“And” between values parts separate entries of the source, which are not always exact repeats. Equal values may be shown once.
System: Normal human fibroblasts
Assay: Production of hyaluronic acid on human fibroblast cultures
Format: cell-based
Details: EGF 10 ng/ml (positive reference), 72-hour incubation
Method: B)—Evaluation of the Moisturizing Effect of the Compositions According to the Invention—Measurement of the Production of Hyaluronic Acid on Human Fibroblast Cultures:
Normal human fibroblasts are seeded and cultured in 96-well plates in 10% FCS (fetal calf serum) culture medium, at 37° C. in a humid atmosphere containing 5% CO2. […] Each condition is performed in n=4. At the end of a 72-hour incubation, the amount of hyaluronic acid excreted into the culture supernatant is measured using a specific assay kit (Hyaluronan Duo Set Assay Development Kit—Biotechne); and the amount of protein present in the cell lawns is measured using the BC Assay kit (Interchim). The amount of hyaluronic acid assayed is then expressed relative to the amount of protein per well. Means and standard deviations are calculated per condition and the level of hyaluronic acid production is evaluated by comparing the test conditions with the control condition (untreated cells).

EGF: epidermal growth factor, the positive reference for the model
Amount of hyaluronic acid produced, Mean (culture supernatant, n=4): 32.29 ng/μg protein and 25.28 ng/μg protein
Amount of hyaluronic acid produced, Difference relative to the control (vs untreated cells): 164%

Source: US11433014B2, “Polyol polyrhamnosides, process for the preparation thereof, and cosmetic and/or pharmaceutical composition comprising same” (SOCIETE D'EXPLOITATION DE PRODUITS POUR LES INDUSTRIES …, priority 2017, dated 2022)
